This experiment concerns L1210 leukemia ip in BDF1 mice, survival T/C. Kind of experiment: NCI In Vivo Anticancer Drug Screen. Data for tumor model L1210 Leukemia (intraperitoneal) in B6D2F1 (BDF1) mice. The following applies: endpoint: mean survival time, higher = longer survival. The method in brief:
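Survival endpoint. Drug-treated group vs vehicle group, expressed as T divided by C. Tumor passaged by transplantation.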

[1] abbreviates: dose: 100.0 mg/kg/injection, schedule: Q01DX001 (ip), vehicle: saline.
The mark [2] stands for this setting: dose: 200.0 mg/kg/injection, schedule: Q01DX001 (ip), vehicle: saline.
The mark [3] stands for this setting: dose: 100.0 mg/kg/injection, schedule: Q01DX009 (ip), vehicle: Klucel (hydroxypropylcellulose) (HPC).
Where [4] appears, read: dose: 100.0 mg/kg/injection, schedule: Q04DX003 (ip), vehicle: Klucel (hydroxypropylcellulose) (HPC).
The mark [5] stands for this setting: dose: 200.0 mg/kg/injection, schedule: Q01DX009 (ip), vehicle: Klucel (hydroxypropylcellulose) (HPC).
[6] abbreviates: dose: 200.0 mg/kg/injection, schedule: Q04DX003 (ip), vehicle: Klucel (hydroxypropylcellulose) (HPC).
Where [7] appears, read: dose: 400.0 mg/kg/injection, schedule: Q01DX009 (ip), vehicle: Klucel (hydroxypropylcellulose) (HPC).
Where [8] appears, read: dose: 400.0 mg/kg/injection, schedule: Q04DX003 (ip), vehicle: Klucel (hydroxypropylcellulose) (HPC).
Where [9] appears, read: dose: 100.0 mg/kg/injection, schedule: Q04DX003 (ip), vehicle: saline with Tween-80.
[10] abbreviates: dose: 200.0 mg/kg/injection, schedule: Q04DX003 (ip), vehicle: saline with Tween-80.
Where [11] appears, read: dose: 400.0 mg/kg/injection, schedule: Q04DX003 (ip), vehicle: saline with Tween-80.

Our source for the T/C values is PubChem BioAssay AID248 (DTP/NCI, 2004).

Values joined by “and” are separate entries in the source; they are usually repeats but may differ in a detail not shown here. Equal entries are not always repeated. Toxic doses and inconclusive results are not listed.

For the compound `CCc1ccc(/C=C/c2ccc(O)c3ncccc23)[n+](C)c1`, the T/C (dose: 2.0 mg/kg/injection, schedule: Q01DX015 (ip), vehicle: carboxymethylcellulose (CMC)) is 115 % of control; the T/C (dose: 2.0 mg/kg/injection, schedule: Q03HX008 (ip), vehicle: other) was 94 % of control; the T/C (dose: 2.0 mg/kg/injection, schedule: Q03HX016 (ip), vehicle: other) is 90 % of control; the T/C (dose: 2.0 mg/kg/injection, schedule: Q03HX024 (ip), vehicle: other) is 98 % of control; the T/C (dose: 4.0 mg/kg/injection, schedule: Q01DX009 (ip), vehicle: carboxymethylcellulose (CMC)) was 120 % of control; the T/C (dose: 4.0 mg/kg/injection, schedule: Q01DX009 (ip), vehicle: other) is 97 % of control. Further, the T/C was 108 % of control (dose: 4.0 mg/kg/injection, schedule: Q01DX015 (ip), vehicle: carboxymethylcellulose (CMC)); 98 % of control (dose: 4.0 mg/kg/injection, schedule: Q03HX008 (ip), vehicle: other); 96 % of control (dose: 4.0 mg/kg/injection, schedule: Q03HX016 (ip), vehicle: other); 97 % of control (dose: 4.0 mg/kg/injection, schedule: Q03HX024 (ip), vehicle: other); 94 % of control (dose: 5.0 mg/kg/injection, schedule: Q01DX001 (ip), vehicle: carboxymethylcellulose (CMC)); 108 % of control (dose: 6.25 mg/kg/injection, schedule: Q01DX009 (ip), vehicle: saline). In addition, the T/C by setting is: (dose: 6.25 mg/kg/injection, schedule: Q04DX003 (ip), vehicle: saline) 107 % of control; (dose: 8.0 mg/kg/injection, schedule: Q01DX009 (ip), vehicle: other) 106 % of control; (dose: 8.0 mg/kg/injection, schedule: Q01DX015 (ip), vehicle: carboxymethylcellulose (CMC)) 113 % of control; (dose: 8.0 mg/kg/injection, schedule: Q03HX008 (ip), vehicle: other) 104 % of control; (dose: 8.0 mg/kg/injection, schedule: Q03HX016 (ip), vehicle: other) 103 % of control; (dose: 8.0 mg/kg/injection, schedule: Q03HX024 (ip), vehicle: other) 108 % of control. Further, the T/C is 100 % of control (dose: 10.0 mg/kg/injection, schedule: Q01DX001 (ip), vehicle: carboxymethylcellulose (CMC)); 104 % of control (dose: 12.5 mg/kg/injection, schedule: Q01DX001 (ip), vehicle: saline); 124 % of control (dose: 12.5 mg/kg/injection, schedule: Q01DX009 (ip), vehicle: saline); 110 % of control (dose: 12.5 mg/kg/injection, schedule: Q04DX003 (ip), vehicle: saline); 107 % of control (dose: 16.0 mg/kg/injection, schedule: Q01DX001 (ip), vehicle: other); 120 % of control (dose: 16.0 mg/kg/injection, schedule: Q01DX009 (ip), vehicle: other). The T/C runs as follows: (dose: 16.0 mg/kg/injection, schedule: Q03HX008 (ip), vehicle: other) 112 % of control; (dose: 16.0 mg/kg/injection, schedule: Q03HX016 (ip), vehicle: other) 110 % of control; (dose: 16.0 mg/kg/injection, schedule: Q03HX024 (ip), vehicle: other) 122 % of control; (dose: 16.0 mg/kg/injection, schedule: Q04DX003 (ip), vehicle: other) 100 % of control; (dose: 16.0 mg/kg/injection, schedule: Q08DX002 (ip), vehicle: other) 97 % of control; (dose: 20.0 mg/kg/injection, schedule: Q01DX001 (ip), vehicle: carboxymethylcellulose (CMC)) 112 % of control. Besides, the T/C runs as follows: (dose: 25.0 mg/kg/injection, schedule: Q01DX001 (ip), vehicle: saline) 114 % of control; (dose: 25.0 mg/kg/injection, schedule: Q01DX009 (ip), vehicle: saline) 117 % of control; (dose: 25.0 mg/kg/injection, schedule: Q04DX003 (ip), vehicle: saline) 110 % of control; (dose: 32.0 mg/kg/injection, schedule: Q01DX001 (ip), vehicle: other) 102 % of control; (dose: 32.0 mg/kg/injection, schedule: Q01DX009 (ip), vehicle: other) 123 % of control; (dose: 32.0 mg/kg/injection, schedule: Q01DX015 (ip), vehicle: carboxymethylcellulose (CMC)) 121 % of control. For the same compound, the T/C was 96 % of control (dose: 32.0 mg/kg/injection, schedule: Q04DX003 (ip), vehicle: other); 96 % of control (dose: 32.0 mg/kg/injection, schedule: Q08DX002 (ip), vehicle: other); 112 % of control (dose: 40.0 mg/kg/injection, schedule: Q01DX001 (ip), vehicle: carboxymethylcellulose (CMC)).

`O=NN(CCCl)C(=O)Nc1ccc(NC(=O)N(CCCl)N=O)cc1`: the T/C reads like this: under setting [1], 201 % of control; under setting [2], 182 % of control; (dose: 300.0 mg/kg/injection, schedule: Q01DX001 (ip), vehicle: saline) 230 % of control; (dose: 400.0 mg/kg/injection, schedule: Q01DX001 (ip), vehicle: saline) 264 % of control; (dose: 500.0 mg/kg/injection, schedule: Q01DX001 (ip), vehicle: saline) 285 % of control; (dose: 600.0 mg/kg/injection, schedule: Q01DX001 (ip), vehicle: saline) 300 % of control. Moreover, the T/C is 291 % of control (dose: 800.0 mg/kg/injection, schedule: Q01DX001 (ip), vehicle: saline) and 268 % of control (dose: 1000.0 mg/kg/injection, schedule: Q01DX001 (ip), vehicle: saline).

For `N#CC1CCCC1=O` (stereo not drawn), the T/C by setting is: (dose: 5.0 mg/kg/injection, schedule: Q01DX009 (ip), vehicle: saline) 97 % of control; (dose: 10.0 mg/kg/injection, schedule: Q01DX009 (ip), vehicle: saline) 101 % of control; (dose: 20.0 mg/kg/injection, schedule: Q01DX009 (ip), vehicle: saline) 106 % of control.

For the compound `CCN(C(=O)c1ccc(Cl)cc1Cl)c1ccccc1C`, the T/C reads like this: under setting [3], 98 % of control; under setting [4], 97 % of control; under setting [5], 96 % of control; under setting [6], 108 % of control; under setting [7], 101 % of control; under setting [8], 98 % of control.

Consider `Cc1c(Cl)cccc1NC(=O)NCCC(C)C`, for which the T/C is 86 % of control (dose: 100.0 mg/kg/injection, schedule: Q01DX009 (ip), vehicle: saline with Tween-80); 93 % of control under setting [9]; 91 % of control under setting [10]; 89 % of control (dose: 400.0 mg/kg/injection, schedule: Q01DX009 (ip), vehicle: saline with Tween-80); 95 % of control under setting [11].

`COc1cc(C)c(OC)c(CCl)c1C`: the T/C runs as follows: under setting [9], 97 % of control; under setting [10], 98 % of control; under setting [11], 92 % of control.

For the compound `C=CCC1CC2(C)C(CCC3C2CCC2(C)C(C(C)CCCC(C)C)CCC32)CC1O` (stereo not drawn), the T/C reads like this: (dose: 100.0 mg/kg/injection, schedule: Q01DX009 (ip), vehicle: gum acacia) 87 % of control; (dose: 200.0 mg/kg/injection, schedule: Q01DX009 (ip), vehicle: gum acacia) 87 % of control; (dose: 400.0 mg/kg/injection, schedule: Q01DX009 (ip), vehicle: gum acacia) 104 % of control.

As to `C#CCCOC(=O)Nc1ccccc1`, the T/C is, setting by setting: under setting [3], 96 % of control; under setting [5], 96 % of control; under setting [7], 102 % of control.

For the compound `CCCCCCC(=O)N1CCOCC1`, the T/C is, setting by setting: (dose: 25.0 mg/kg/injection, schedule: Q04DX002 (ip), vehicle: saline) 108 % of control; (dose: 50.0 mg/kg/injection, schedule: Q04DX002 (ip), vehicle: saline) 101 % of control; (dose: 100.0 mg/kg/injection, schedule: Q04DX002 (ip), vehicle: saline) 93 % of control and 92 % of control.

Take `CNCCc1ccccc1`: the T/C reads like this: under setting [1], 107 % of control; under setting [2], 108 % of control.

`CCC(COC(C)=O)(COC(C)=O)[N+](=O)[O-]`: the T/C was 103 % of control under setting [4], 98 % of control under setting [6] and 101 % of control under setting [8].
